Key:
[1] = system: PCA-induced serotonin depletion (5HT uptake into 5HT neurons), rat whole brain; assay: Antagonism of parachloroamphetamine (PCA)-induced depletion of serotonin levels from rat brain in vivo; design: species or system Sprague-Dawley CD male rats; conditions: subcutaneous, together with 6.6 mg/kg PCA, whole brain serotonin four hours later
From the text: Ability of (1-{2-[1-(3,4-Dichloro-phenyl)-ethyl]-phenyl}-ethyl)-methyl-amine Hydrochloride to Antagonize Parachloroamphetamine (PCA)-induced Depletion of Serotonin Levels from Rat Brain In Vivo
Serotonin uptake blockers show a dose-dependent antagonism of the serotonin-depleting action of PCA, a drug which requires 5HT uptake into 5HT neurons to exert its effect. Sprague-Dawley CD male rats (180-230 g.) in groups of five received two simultaneous subcutaneous injections: either the named test compound (at different dosage levels)+6.6 mg/kg body weight PCA, water+6.6 mg/kg body weight PCA, or water+water (controls). The rats were decapitated four hours later and their whole brain assayed for serotonin content by the Bogdanski method. Homogenates of brain in 0.1N HCl were made alkaline with borate buffer and extracted with butanol. The solvent phase was then extracted with 0.1N HCl. The aqueous extracts were acidified with concentrated HCl and the intrinsic fluorescence of serotonin measured in a spectrophotofluorometer. The ED50, i.e., the dose giving a 50% reversal of the PCA-induced serotonin depletion, was estimated to be 0.1 mg/kg body weight. Similarly, the ED50 for other compounds in Examples 1-17 were determined and were <0.3 mg/kg.

[2] = system: immobility of Swiss-Webster CD male mice; assay: Reduction of behavioral despair in vivo (modified Porsolt method); conditions: mouse, subcutaneous, tested one hour after injection, linear regression analysis of % MPE data
Description: Reduction of Behavioral Despair In Vivo (Modified Porsolt Method) by (1-{2-[1-(3,4-Dichloro-phenyl)-ethyl]-phenyl}-ethyl)-methyl-amine hydrochloride.
A modification of the procedure described by Porsolt et al., Arch. Int. Pharmnacodyn., 229, pp. 327-336 (1977) was used. A number of Swiss-Webster CD male mice weighing 25-30 g. were housed under standard laboratory conditions for at least one week prior to experimentation. Groups of 10 mice were then injected subcutaneously with either a given dosage of the named test compound or vehicle (5% Emulphor: 5% ethanol: 90% normal saline). One hour later the mice were placed individually in 1 liter beakers containing 7 cm of 25° C. water. […] A total of ten observations were made, each being scored as “0=animal moving, swimming, attempting to escape” or “1=animal immobile”. The number of positive observations for each mouse was then totaled and a mean immobility score calculated for the group of ten. […] From the % MPE data a % MPE50 value, i.e. the dosage producing a 50% reduction in immobility relative to control, was determined by linear regression analysis to be 5.2 mg/kg body weight for the named test compound. Similarly, the % MPE50 values were determined for other compounds in examples 1-17 and were <8.0 mg/kg.

`CNC(C)c1ccccc1C(C)c1ccc(Cl)c(Cl)c1.Cl` (centres unmarked) [(1-{2-[1-(3,4-Dichloro-phenyl)-ethyl]-phenyl}-ethyl)-methyl-amine Hydrochloride] was tested, and the “ED50, the dose giving a 50% reversal of the PCA-induced serotonin depletion” value [1] was 0.1 mg/kg body weight and the “% MPE50, the dosage producing a 50% reduction in immobility relative to control” value [2] was 5.2 mg/kg body weight.

Reference: patent US6759435B1, “Antidepressant drugs and methods” (A.P. Group Inc., priority 2003, dated 2004)
